Laboratory results as given in patent US20060251597A1, “ANTI-ODOR COMPOSITIONS AND THERAPEUTIC USE” (priority 2005, published 2006).
Structures can show the parent of a compound that is named as a salt. Where two headings read alike, the source gives them in different places.

How the values were obtained:
[1] = anti-odor test, panel by sniffing: N-acetyl-L-cysteine dissolved in a single solvent or liquid ingredient (anhydrous composition); conditions: for anti-odor effect: 10% N-acetyl-L-cysteine and 90% solvent or liquid ingredient; for suppression of the malodor, judged by panel: 10% N-acetyl-L-cysteine and 90% solvent
Protocol: An anti-odor test was carried out in an anhydrous solvent according to the following example. In a series of test tubes, 4.5 ml of a solvent was added to a test tube such that each test tube comprised a single solvent. The solvents added to the test tubes included water, ethanol, acetone, n-propanol, isopropyl alcohol, propylene glycol, butylenes glycol, benzyl alcohol, ethoxydiglycol, 2-ethyl-1,3-hexanediol. N-Acetyl-L-cysteine (MW 163) 0.5 g was then added and dissolved in each solvent. The test tubes were warmed slightly to enhance dissolution of N-acetyl-L-cysteine crystals. Each test tube contained 10% N-acetyl-L-cysteine and 90% solvent.
An anti-odor test was carried out in an anhydrous composition according to the following example. In a series of test tubes, 4.5 ml of a liquid ingredient was added to a test tube such that each test tube comprised a single liquid ingredient. The liquid ingredients added to a test tube included ethyl glycolate, ethyl-L-lactate, diethyl tartrate, triethyl citrate, tripropyl citrate, ethyl-DL-mandelate, benzyl N-acetyl-prolinate, ethyl N-acetyl-prolinate, propyl N-acetyl-prolinate. N-Acetyl-L-cysteine (MW 163) 0.5 g was then added and dissolved in each liquid ingredient. The test tubes were warmed slightly to enhance dissolution of N-acetyl-L-cysteine crystals. Each test tube contained 10% N-acetyl-L-cysteine and 90% liquid ingredient. The panel judged the anti-odor effect in each test tube.

[2] = anti-odor test, three-member panel by sniffing: sulfone or organic amine in composition containing water or alcohol (solution, oil-in-water emulsion)
Protocol: (§1) Initially, a malodor compound such as about 5% by weight was prepared in water solution or in oil-in-water emulsion. A sulfone or organic amine of the present embodiments was added at various concentrations for example, ranging from about 2%, 1%, 0.5% and 0.1% to the formulations containing the malodor substance. The composition containing the malodor substance without a sulfone or organic amine was used as the control.
Methenamine (MW 140) 7.0 g was dissolved in water, and the total volume was 100 ml. This solution contained methenamine 0.5M or 70 mg per ml methenamine.
Piperazine (MW 86) 4.3 g was dissolved in water, and the total volume was 100 ml. This solution contained piperazine 0.5M, or 43 mg per ml piperazine.

[3] = panel sniff tests of solvents, ingredients and amines against thiol malodor (general statements); conditions: solvent or ingredient, based on the panel tests
Protocol: as §1

[4] = 10% N-acetyl-L-cysteine and 5% anti-odor ingredient in water
[5] = water, 4% N-acetyl-L-cysteine and 1% organic amine (cytidine solution pH 4.3)
[6] = water, N-acetyl-L-cysteine 0.25 M and chlorhexidine 0.1 M
[7] = water, N-acetyl-L-cysteine 4% and piperazine 0.43%, pH 3.4
[8] = water, N-acetyl-L-cysteine 4% and piperazine 1.1%, pH 5.6
[9] = water, N-acetyl-L-cysteine 4% and trizma base 0.61%, pH 3.0
[10] = water, N-acetyl-L-cysteine 4% and trizma base 1.5%, pH 3.5

CCOC(=O)C(O)c1ccccc1 (racemic) [ethyl-DL-mandelate]
anti-odor effect [1]: 100%

O=S(=O)(CCO)CCO [2,2-sulfonyldiethanol]
malodor as judged by panel [2]: did not have any malodor

CCCC(O)C(CC)CO (stereo not shown) [2-ethyl-1,3-hexanediol]
anti-odor effect [1]: 100%
prevention of malodor produced by a thiol or similar malodor compounds [3]: effectively prevent malodor

Cc1cc(S(=O)(=O)c2ccc(O)c(C)c2)ccc1O [4,4′-sulfonyl-bis(2-methylphenol)]
malodor as judged by panel [2, 4]: did not have any malodor

COC(=O)c1ccc(S(=O)(=O)c2ccc(C(=O)OC)cc2)cc1 [4,4′-sulfonyl-bis(methylbenzoate)]
malodor as judged by panel [2, 4]: did not have any malodor

O=S(=O)(c1ccc(O)cc1)c1ccc(O)cc1 [4,4′-sulfonyldiphenol]
malodor as judged by panel [2]: did not have any malodor

CC(=O)N[C@@H](CS)C(=O)O [N-Acetyl-L-cysteine, reference compound]
malodor as judged by panel ([2]; cream (oil-in-water emulsion), 10% N-acetyl-L-cysteine, no anti-odor ingredient (control)): very unpleasant malodor

CCCCO [N-butyl alcohol]
prevention of malodor produced by a thiol or similar malodor compounds [3]: effectively prevent malodor

CC(C)=O [acetone]
anti-odor effect [1]: 100%

Nc1ncnc2nc[nH]c12 [adenine]
effective in preventing malodor [2, 5]: 50%
malodor as judged by panel [2, 5]: slight malodor ((b) slight malodor (50% effective))

CC(=O)N1CCC[C@H]1C(=O)OCc1ccccc1 [benzyl N-acetyl-prolinate]
anti-odor effect [1]: 100%
prevention of malodor produced by a thiol or similar malodor compounds [3]: effectively prevent malodor

OCc1ccccc1 [benzyl alcohol]
anti-odor effect [1]: 100%

CCCCOCCOCCO [butoxydiglycol]
prevention of malodor produced by a thiol or similar malodor compounds [3]: effectively prevent malodor

CCCCOCC(C)O (stereo not shown) [butoxypropanol]
prevention of malodor produced by a thiol or similar malodor compounds [3]: effectively prevent malodor

CCCCOC(C)=O [butyl acetate]
prevention of malodor produced by a thiol or similar malodor compounds [3]: effectively prevent malodor

CCCCOC(=O)C(C)O (stereo not shown) [butyl lactate]
prevention of malodor produced by a thiol or similar malodor compounds [3]: effectively prevent malodor

CCCCCCC(CO)CCCC (stereo not shown) [butyloctanol]
prevention of malodor produced by a thiol or similar malodor compounds [3]: effectively prevent malodor

[H]/N=C(\N/C(=N/[H])NCCCCCCNC(=N)NC(=N)Nc1ccc(Cl)cc1)Nc1ccc(Cl)cc1 [chlorhexidine base, chlorhexidine, reference compound]
effective in preventing odor [2, 6]: 50%
malodor as judged by panel [2, 6]: slight malodor ((b) slight malodor (50% effective))

C1CCCCC1 [cyclohexane]
prevention of malodor produced by a thiol or similar malodor compounds [3]: effectively prevent malodor

Nc1cc[nH]c(=O)n1 [cytosine]
effective in preventing malodor [2, 5]: 50%
malodor as judged by panel [2, 5]: slight malodor ((b) slight malodor (50% effective))

CCCCOC(=O)CCCCC(=O)OCCCC [dibutyl adipate]
prevention of malodor produced by a thiol or similar malodor compounds [3]: effectively prevent malodor

CC(C)COC(=O)CCCCC(=O)OCC(C)C [diisobutyl adipate]
prevention of malodor produced by a thiol or similar malodor compounds [3]: effectively prevent malodor

CC(C)OC(=O)CCCCC(=O)OC(C)C [diisopropyl adipate]
prevention of malodor produced by a thiol or similar malodor compounds [3]: effectively prevent malodor

CC(C)OC(=O)C(=O)OC(C)C [diisopropyl oxalate]
prevention of malodor produced by a thiol or similar malodor compounds [3]: effectively prevent malodor

CC(C)OC(=O)CCCCCCCCC(=O)OC(C)C [diisopropyl sebacate]
prevention of malodor produced by a thiol or similar malodor compounds [3]: effectively prevent malodor

COCCOCCOC [dimethoxydiglycol]
prevention of malodor produced by a thiol or similar malodor compounds [3]: effectively prevent malodor

COC(=O)CCCCC(=O)OC [dimethyl adipate]
prevention of malodor produced by a thiol or similar malodor compounds [3]: effectively prevent malodor

CS(C)(=O)=O [dimethyl sulfone]
malodor as judged by panel [2, 4]: did not have any malodor
malodor as judged by panel ([2]; 10% N-acetyl-L-cysteine and 10% dimethyl sulfone in ethanol): very strong malodor
malodor as judged by panel ([2]; 10% N-acetyl-L-cysteine and 10% sulfone in water): did not have any malodor
prevention of malodor produced by a thiol or similar malodor compounds [3]: effectively prevent malodor

CCCCCCCCOC(=O)CCCCC(=O)OCCCCCCCC [dioctyl adipate]
prevention of malodor produced by a thiol or similar malodor compounds [3]: effectively prevent malodor

CCCCCCCCOC(=O)CCCCCCCCC(=O)OCCCCCCCC [dioctyl sebacate]
prevention of malodor produced by a thiol or similar malodor compounds [3]: effectively prevent malodor

O=S(=O)(c1ccccc1)c1ccccc1 [diphenylsulfone]
malodor as judged by panel [2, 4]: did not have any malodor

CCCOC(=O)CCCCC(=O)OCCC [dipropyl adipate]
prevention of malodor produced by a thiol or similar malodor compounds [3]: effectively prevent malodor

CCO [ethanol]
suppression of the malodor, judged by panel [1]: did not suppress the malodor

CCOCCO [ethoxyethanol]
prevention of malodor produced by a thiol or similar malodor compounds [3]: effectively prevent malodor

CCOC(=O)CC(C)=O [ethyl acetoacetate]
malodor as judged by panel [2, 4]: did not have any malodor
prevention of malodor produced by a thiol or similar malodor compounds [3]: effectively prevent malodor

CCOC(=O)C(C)O (stereo not shown) [ethyl lactate]
prevention of malodor produced by a thiol or similar malodor compounds [3]: effectively prevent malodor

CCOC(=O)[C@H](C)O [ethyl-L-lactate]
anti-odor effect [1]: 100%

Nc1nc2nc[nH]c2c(=O)[nH]1 [guanine]
effective in preventing malodor [2, 5]: 50%
malodor as judged by panel [2, 5]: slight malodor ((b) slight malodor (50% effective))

Nc1nc2c(ncn2[C@@H]2O[C@H](CO)[C@@H](O)[C@H]2O)c(=O)[nH]1 [guanosine]
effective in preventing malodor [2, 5]: 50%
malodor as judged by panel [2, 5]: slight malodor ((b) slight malodor (50% effective))

CC(C)CC(C)(C)C [isooctane]
prevention of malodor produced by a thiol or similar malodor compounds [3]: effectively prevent malodor

CC(=O)N1CCC[C@H]1C(=O)OC(C)C [isopropyl N-acetyl-prolinate]
prevention of malodor produced by a thiol or similar malodor compounds [3]: effectively prevent malodor

CC(=O)OC(C)C [isopropyl acetate]
prevention of malodor produced by a thiol or similar malodor compounds [3]: effectively prevent malodor

CCCCCCCCCCCCCC(=O)OC(C)C [isopropyl myristate]
prevention of malodor produced by a thiol or similar malodor compounds [3]: effectively prevent malodor

C1N2CN3CN1CN(C2)C3 [methenamine, reference compound]
concentration that can completely eliminate the malodor ([2]; N-acetyl-L-cysteine 2% in oil-in-water emulsion): ≥ 0.1%
malodor as judged by panel ([2]; cream (oil-in-water emulsion), 10% N-acetyl-L-cysteine and 3% methenamine): did not have any malodor
malodor as judged by panel ([2]; water, N-acetyl-L-cysteine 4% and methenamine 0.7%, pH 3.9): did not have any malodor
malodor as judged by panel ([2]; water, N-acetyl-L-cysteine 4% and methenamine 1.8%, pH 5.2): did not have any malodor

CCCCCCCCCCCCCCCCCC [octadecane]
prevention of malodor produced by a thiol or similar malodor compounds [3]: effectively prevent malodor

CCCCCCCCO [octanol]
prevention of malodor produced by a thiol or similar malodor compounds [3]: effectively prevent malodor

CCCCCCCCOC(=O)c1ccccc1 [octyl benzoate]
prevention of malodor produced by a thiol or similar malodor compounds [3]: effectively prevent malodor

CCCCCCCC/C=C\CCCCCCCCO [oleyl alcohol]
prevention of malodor produced by a thiol or similar malodor compounds [3]: effectively prevent malodor

CCCCCCCC/C=C\CCCCCCCCOC(=O)C(C)O (stereo not shown) [oleyl lactate]
prevention of malodor produced by a thiol or similar malodor compounds [3]: effectively prevent malodor

C1CNCCN1 [piperazine, reference compound]
effective in preventing odor [2, 7]: 50%
malodor as judged by panel [2, 7]: slight malodor ((b) slight malodor (50% effective))
effective in preventing odor [2, 8]: 50%
malodor as judged by panel [2, 8]: slight malodor ((b) slight malodor (50% effective))

CC(O)CO (stereo not shown) [propylene glycol]
suppression of the malodor, judged by panel [1]: did not suppress the malodor

CC(C)OC(=O)CC(O)(CC(=O)OC(C)C)C(=O)OC(C)C [triisopropyl citrate]
prevention of malodor produced by a thiol or similar malodor compounds [3]: effectively prevent malodor

O [water]
suppression of the malodor, judged by panel [1]: did not suppress the malodor

cycloethoxymethicone
prevention of malodor produced by a thiol or similar malodor compounds [3]: effectively prevent malodor

cyclomethicone
prevention of malodor produced by a thiol or similar malodor compounds [3]: effectively prevent malodor

tris(hydroxymethyl)aminomethane [trizma base]
effective in preventing odor [2, 9]: 50%
malodor as judged by panel [2, 9]: slight malodor ((b) slight malodor (50% effective))
effective in preventing odor [2, 10]: 50%
malodor as judged by panel [2, 10]: slight malodor ((b) slight malodor (50% effective))
